The record followed here is patent publication US12421249B2, “Inhibitors of APOL1 and methods of using same” (Vertex Pharmaceuticals Incorporated, priority 2020, dated 2025).

The target of one test is T1, APOL1 G1 (Homo sapiens, UniProt O14791, I384M/S342G).
T1 sequence (O14791 28-398 S342G/I384M): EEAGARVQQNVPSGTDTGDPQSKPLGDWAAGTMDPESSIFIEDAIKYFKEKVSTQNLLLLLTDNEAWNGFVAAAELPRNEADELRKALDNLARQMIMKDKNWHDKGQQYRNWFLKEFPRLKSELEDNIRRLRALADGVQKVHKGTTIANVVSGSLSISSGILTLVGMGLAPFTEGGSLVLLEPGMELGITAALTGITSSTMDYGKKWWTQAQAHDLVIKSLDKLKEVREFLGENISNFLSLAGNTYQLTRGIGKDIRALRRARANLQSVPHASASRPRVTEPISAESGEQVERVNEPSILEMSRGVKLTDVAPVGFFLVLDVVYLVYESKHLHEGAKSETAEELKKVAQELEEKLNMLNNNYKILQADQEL
Nature of the test: Trypanosoma brucei brucei Lysis Assay Using APOL1 Recombinant Protein (AlamarBlue viability readout). In kind it is cell-based. The conditions noted are these: Trypanosome Assay; for IC50: IP50 = IC50 for cell proliferation, read-out: Trypanosome Assay IP50; for Emax: read-out: Trypanosome Assay Max Activity (%). The source says:
Trypanosoma brucei brucei is a blood stream parasite to which human, gorillas, and baboons are immune due to the presence of the APOL1 protein in their HDL particles. The protein is uptaken by the parasite via the TbHpHb receptor located in its flagellar pocket and is bonded by the Hpr protein contained in the HDL particles which triggers the receptor endocytosis by the parasite.
Following endocytosis, the formed vesicle containing the HDL particle matures from early to late endosome, and subsequently to lysosome. The concomitant pH change in the lumen of the vesicle triggers the insertion of the APOL1 protein into the membrane of the late endosome/lysosome and hereby triggers lysosomal membrane permeabilization and as a further downstream event, trypanosome lysis. Trypanosoma brucei brucei is sensitive to lysis by all three APOL1 variants (G0, G1, and G2).
The Trypanosoma brucei brucei lysis assay is a lysis assay of the parasite using recombinant APOL1 protein variant followed by a fluorescent detection method of viability by the addition of AlamarBlue reagent to the assay well, a general metabolic redox indicator (AlamarBlue assay).
Briefly, the AlamarBlue active compound, resazurin, a blue, water soluble, non-toxic and cell permeable molecule, which can be followed by absorbance, is reduced by various metabolic pathways into resorufin, a red compound which can be followed by either absorbance or fluorescence. The assay allows the calculation of the percent viability (percent of living Trypanosomes remaining in each well) at the end of a lysis relative to the untreated condition by interpolation of fluorescent values (FLU) on a standard curve with a known amount of seeded trypanosome/well.
Trypanosoma brucei brucei (ATCC, Cat. No. PRA-382)
• Lister 427 VSG 221 bloodstream form.
Equipment • E1-Clip Tip pipette 12 channel adjustable 2-125 μL, Cat. No. 4672070BT • ThermoFisher MultiDrop 384, Cat. No. 5840300 • Multidrop • Agilent Bravo, Cat. No. G5409A • Bravo • SpectraMax M5 Assay Ready Plates (ARPs) • ARPs comes in two formats: • […] final top concentration with a 2.5 fold dilution down. • […] final top concentration with a 3 fold dilution down. • Both have a 10 point Dose response. • 0.1% DMSO final in the Black Assay Plate. • Compounds are diluted 1000 fold in the Black Assay Plate. • Each plate is designed for 14 compounds in duplicate. • In the final Black Assay Plate: • Column 1: Media only (no APOL1) (100% viable) • Column 2-23: 0.05 μg/mL APOL1 (˜EC90) (10% viable with APOL1) • Column 24: 0.1 μg/mL APOL1 (EC100) (Approx. […] Step 2, Day 4 • Centrifuge at 800×g for 5 minutes at room temperature. • Resuspend in 1 mL media. • Make a 1:25 fold dilution (10 μL/240 μL media). • Count on a hemocytometer (after adding parasites). • Let sit for 1-2 minutes for the parasites to settle. • Count should be approximately 100 viable motile parasites/16 grid or approximately 25×10^6 parasites/flask. • Passage the parasites by adding 1×10^6 parasites/T75 flask in 20 mL media. • Passage the parasites by adding 2.33×10^6 parasites/T175 flask in 46.6 mL media. • For every T75 flask should make enough for approximately 1.5×384 well assay plates. • For every T175 flask should make enough for approximately 3.8×384 well assay plates. Step 3, Day 6 • Centrifuge at 800×g for 5 minutes. • Resuspend in 3 mL assay media (No phenol red, no FBS) per 75 starting flask. • Resuspend in 7 mL assay media (No phenol red, no FBS) per 175 flask • Make a 1:25 fold dilution. • Count by hemocytometer. • Every T75 flask set up should have approximately 75×10^6 parasites/flask (verify doubling time=8.7 hours±1 hour). • Every T175 flask set up should have approximately 175×10^6 parasites/flask (verify doubling time=8.7 hours±1 hour). • Require 46×10^6 parasites per 384 well plate (at 120,000 parasites per well). […]

A further test concerns the target T2, APOL1 (Homo sapiens, UniProt O14791).
T2 sequence (O14791 1-398 S342G/I384M): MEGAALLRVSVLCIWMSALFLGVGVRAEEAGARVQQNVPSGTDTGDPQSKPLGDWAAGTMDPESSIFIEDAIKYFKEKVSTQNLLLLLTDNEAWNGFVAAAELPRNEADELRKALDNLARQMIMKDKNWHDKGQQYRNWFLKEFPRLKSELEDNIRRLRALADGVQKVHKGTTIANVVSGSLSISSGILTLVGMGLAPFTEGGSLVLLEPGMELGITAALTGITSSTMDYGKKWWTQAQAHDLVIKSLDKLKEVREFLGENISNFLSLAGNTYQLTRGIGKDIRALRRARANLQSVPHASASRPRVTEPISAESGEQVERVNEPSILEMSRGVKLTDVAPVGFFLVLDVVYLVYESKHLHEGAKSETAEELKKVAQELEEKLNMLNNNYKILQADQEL
Put plainly: Multi-Tox Assay (MultiTox-Fluor Multiplex Cytotoxicity Assay in tet-inducible APOL1 T-REx-HEK293 cells; Table 46 does not say which APOL1 variant G0/G1/G2). In kind it is cell-based. The conditions noted are these: APOL1 variant not given; for IC50: IP50 = IC50 for cell proliferation.

For the compound `C[C@H]1C[C@@]2(C[C@@H](c3cccc(C#N)n3)N1)OCCc1cc(Cl)sc12` (racemic) [Compound 53], at APOL1 G1, the IC50 fell in the range of 50 to 500 nM and the Emax stood at 106%. For the same compound, on APOL1, the “Multi-Tox Assay Max Activity (%)” value worked out at 99.3% and the IC50 was below 50 nM.

For the compound `C[C@H]1C[C@@]2(C[C@@H](c3ccc4c(c3)NC(=O)CO4)N1)OCCc1cc(Cl)sc12` (racemic) [Compound 54], at APOL1 G1, the IC50 was below 50 nM and the Emax came out at 102%. For the same compound, at APOL1, the IC90 is below 50 nM, the “Multi-Tox Assay Max Activity (%)” value is listed as 100.0% and the IC50 was below 50 nM.

For `Cc1ccc([C@@H]2C[C@]3(C[C@H](C)N2)OCCc2cc(Cl)sc23)cn1` (racemic) [Compound 55], at APOL1 G1, the IC50 is below 50 nM and the Emax came to 112%. For the same compound, on APOL1, the “Multi-Tox Assay Max Activity (%)” value stood at 99.7% and the IC50 is below 50 nM.

Regarding `C[C@H]1C[C@@]2(C[C@@H](c3cnn(CCO)c3)N1)OCCc1cc(Cl)sc12` (racemic) [Compound 56], at APOL1 G1, the IC50 is below 50 nM and the Emax amounted to 116%. On APOL1, the “Multi-Tox Assay Max Activity (%)” value came out at 99.8% and the IC50 was below 50 nM.

For the compound `C[C@H]1C[C@@]2(C[C@@H](c3cnc(N)nc3)N1)OCCc1cc(Cl)sc12` (racemic) [Compound 57], at APOL1 G1, the IC50 was below 50 nM and the Emax worked out at 105%. Moreover, at APOL1, the “Multi-Tox Assay Max Activity (%)” value amounted to 99.7% and the IC50 was below 50 nM.

For the compound `Cc1ccc([C@@H]2C[C@]3(C[C@H](C)N2)OCCc2cc(Cl)sc23)nn1` (racemic) [Compound 58], on APOL1 G1, the IC50 was below 50 nM and the Emax worked out at 100%. Besides, at APOL1, the “Multi-Tox Assay Max Activity (%)” value was 99.7% and the IC50 was below 50 nM.

In the case of `C[C@H]1C[C@@]2(C[C@@H](c3ccc(O)cn3)N1)OCCc1cc(Cl)sc12` (racemic) [Compound 59], at APOL1 G1, the IC50 was below 50 nM and the Emax came to 116%. For the same compound, on APOL1, the “Multi-Tox Assay Max Activity (%)” value is 99.3% and the IC50 was below 50 nM.

On to `CNc1ncc([C@@H]2C[C@]3(C[C@H](C)N2)OCCc2cc(Cl)sc23)cn1` (racemic) [Compound 60], for which, at APOL1 G1, the IC50 is below 50 nM and the Emax worked out at 102%. In addition, at APOL1, the “Multi-Tox Assay Max Activity (%)” value is given as 99.7% and the IC50 was below 50 nM.

`COc1ccc([C@@H]2C[C@]3(C[C@H](C)N2)OCCc2cc(Cl)sc23)cc1C#N` (racemic) [Compound 62]: the IC50 at APOL1 G1 and on APOL1 was below 50 nM each time. At APOL1 G1, the Emax was determined as 95%.

On to `C[C@H]1C[C@@]2(C[C@@H](c3cnc(C(N)=O)cn3)N1)OCCc1cc(Cl)sc12` (racemic) [Compound 63], for which, on APOL1 G1, the IC50 was below 50 nM and the Emax was 104%. At APOL1, this compound yielded an IC50 below 50 nM.

Turning to `Cc1cncc([C@@H]2C[C@]3(C[C@H](C)N2)OCCc2cc(Cl)sc23)c1` (racemic) [Compound 64], the IC50 at APOL1 G1 and on APOL1 was below 50 nM in each case.

With `C[C@H]1C[C@@]2(C[C@@H](c3cnn(-c4ccccc4)c3)N1)OCCc1cc(Cl)sc12` (racemic) [Compound 65], the IC50 at APOL1 G1 and at APOL1 was below 50 nM in each case. At APOL1 G1, the Emax turned out to be 105%.

Consider `Cc1cc([C@@H]2C[C@]3(C[C@H](C)N2)OCCc2cc(Cl)sc23)on1` (racemic) [Compound 66], for which, at APOL1 G1, the IC50 was below 50 nM and the Emax stood at 103%. Further, the IC50 at APOL1 was below 50 nM.

Take `C[C@H]1C[C@@]2(C[C@@H](c3ccc4cn[nH]c4c3)N1)OCCc1cc(Cl)sc12` (racemic) [Compound 67]: the IC50 on APOL1 G1 and against APOL1 was below 50 nM throughout. Further, the Emax at APOL1 G1 came to 105%.

With `C[C@H]1C[C@@]2(C[C@@H](c3ccc(O)nc3)N1)OCCc1cc(Cl)sc12` (racemic) [Compound 68], at APOL1 G1, the IC50 is below 50 nM and the Emax is 106%. The IC50 against APOL1 is below 50 nM.

In the case of `CCOc1ccc([C@@H]2C[C@]3(C[C@H](C)N2)OCCc2cc(Cl)sc23)nc1` (racemic) [Compound 69], the IC50 on APOL1 G1 and at APOL1 was below 50 nM each time. Also, the Emax at APOL1 G1 worked out at 110%.

Consider `C[C@H]1C[C@@]2(C[C@@H](c3cnc(-c4ccccc4)o3)N1)OCCc1cc(Cl)sc12` (racemic) [Compound 70], for which, on APOL1 G1, the IC50 is below 50 nM and the Emax came to 104%. At APOL1, the IC50 is below 50 nM.

As to `C[C@H]1C[C@@]2(C[C@@H](c3ccc(C(=O)NC4CC4)cc3)N1)OCCc1cc(Cl)sc12` (racemic) [Compound 71], the IC50 at APOL1 G1 and on APOL1 was below 50 nM in each case. Further, the Emax on APOL1 G1 was 104%.

Consider `C[C@H]1C[C@@]2(C[C@@H](c3c[nH]nn3)N1)OCCc1cc(Cl)sc12` (racemic) [Compound 72], for which, on APOL1 G1, the IC50 is below 50 nM and the Emax was found to be 118%. Moreover, the IC50 against APOL1 was below 50 nM.

Regarding `Cc1cc([C@@H]2C[C@]3(C[C@H](C)N2)OCCc2cc(Cl)sc23)[nH]n1` (racemic) [Compound 73], at APOL1 G1, the IC50 is below 50 nM and the Emax came out at 110%. The compound further came in with an IC50 against APOL1 below 50 nM.

In the case of `C[C@H]1C[C@@]2(C[C@@H](c3cn4c(n3)COCC4)N1)OCCc1cc(Cl)sc12` (racemic) [Compound 74], on APOL1 G1, the IC50 fell in the range of 50 to 500 nM and the Emax was 110%. The same compound showed an IC50 against APOL1 below 50 nM.

Take `C[C@H]1C[C@@]2(C[C@@H](c3cnc(N(C)C)nc3)N1)OCCc1cc(Cl)sc12` (racemic) [Compound 75]: the IC50 at APOL1 G1 and against APOL1 was below 50 nM throughout. In addition, the Emax on APOL1 G1 worked out at 105%.

Regarding `Cc1ccc([C@@H]2C[C@]3(C[C@H](C)N2)OCCc2cc(Cl)sc23)nc1` (racemic) [Compound 77], at APOL1 G1, the IC50 was below 50 nM and the Emax amounted to 110%. For the same compound, the IC50 against APOL1 is below 50 nM.

In the case of `C[C@H]1C[C@@]2(C[C@@H](c3ccc(S(N)(=O)=O)cc3F)N1)OCCc1cc(Cl)sc12` (racemic) [Compound 78], on APOL1 G1, the IC50 was below 50 nM and the Emax amounted to 102%. The IC50 against APOL1 is below 50 nM.
